Patent publication US12622918B2, “Formulations and dosages for administering a compound that inhibits MCL1 protein” (Amgen Inc., priority 2019, dated 2026)
pIC50: −log10 of the molar value.

How the values were obtained:
[1] = Description: Nonclinical safety studies on the compound of Formula I consisted of an exploratory 14-day dog IV toxicology study, Good Laboratory Practices (GLP) 28-day rat and dog IV toxicology studies, in vitro exploratory genotoxicity studies (GLP human ether-á-go-go related gene [hERG] and non-GLP isolated rabbit heart) to characterize potential cardiovascular effects. The doses selected for the 28-day IV rat and dog toxicology studies were intended to characterize the toxicity of the compound of Formula I and provide data to support a starting dose in the first-in-human (FIH) study. An IV route of administration and a dosing schedule of 2 days on/5 days off was used to support the anticipated clinical route and dosing schedule. In a 28-day GLP rat IV infusion toxicology study, the severely toxic dose in 10% of animals (STD10) was 60 mg/kg based on mortality at 120 mg/kg and in a 28-day GLP IV toxicology study in dogs, the highest-nonseverely-toxic dose (HNSTD) was 10 mg/kg based on mortality at 20 mg/kg.
MM1R = assay: Cell viability (CellTiterGlo), MM1R; format: cell-based; details: MM.1R, Multiple myeloma, 24 hours, 10% FBS, read-out: AMS 176 IC50
[2] = Pharmacokinetics in monkeys; details: male, monkey, in vivo, read-out: mean terminal elimination half-life (t1/2,z) (converted)
Description: (§1) The pharmacokinetics (PK) of the compound of Formula I after single intravenous (IV) or oral administration were characterized in male CD1 mice, female athymic nude mice, male Nu/Nu mice, male Sprague Dawley rats, male beagle dogs, and male cynomolgus monkeys. The clearance (CL) of the compound was low in mice, rats, dogs, and monkeys relative to their hepatic blood flow. Volume of distribution at steady state (Vss) in mice, rats, dogs, and monkeys was variable across the species.

Karoas620 = assay: Cell viability (CellTiterGlo), Karoas620; format: cell-based; details: Karoas620, Multiple myeloma; 24 hours; 10% FBS; read-out: AMS 176 IC50
[3] = system: OPM2-Luc tumor xenografts; assay: OPM2-Luc xenograft efficacy, once-weekly dosing; format: in vivo
Protocol: Female athymic nude mice were injected subcutaneously with 5×10^6 human OPM2-Luc multiple myeloma tumor cells. […] Tumor volume and body weight were measured twice per week through day 26. […] In the 50 mg/kg intraperitoneal group, 98% regression was observed (p<0.0001) (FIG. 6).

Pfeiffer = assay: Cell viability (CellTiterGlo), Pfeiffer; format: cell-based; details: Homo sapiens, NHL, 24 hours, 10% FBS, read-out: AMS 176 IC50
[4] = in vivo
Ramos = assay: Cell viability (CellTiterGlo), Ramos; format: cell-based; details: Homo sapiens, NHL, 24 hours, 10% FBS, read-out: AMS 176 IC50
Dog MCL1 = Dog MCL1 (Canis lupus familiaris, UniProt Q8HYS5); assay: Cell-free TR-FRET BIM-binding assay, Dog MCL1; details: BIM-binding partner Dog MCL1; n = 3
Namalwa = assay: Cell viability (CellTiterGlo), Namalwa; format: cell-based; details: NHL, 24 hours, 10% FBS, read-out: AMS 176 IC50
U937 = assay: Cell viability (CellTiterGlo), U937; format: cell-based; details: Homo sapiens, U-937; U937, NHL; 24 hours; 10% FBS; read-out: AMS 176 IC50
TF-1 = assay: Cell viability (CellTiterGlo), TF-1; format: cell-based; details: Homo sapiens; TF-1, AML; 24 hours; 10% FBS; read-out: AMS 176 IC50
KMS26 = assay: Cell viability (CellTiterGlo), KMS26; format: cell-based; details: KMS-26; KMS26, Multiple myeloma; 24 hours; 10% FBS; read-out: AMS 176 IC50
KMM1 = assay: Cell viability (CellTiterGlo), KMM1; format: cell-based; details: KMM-1; KMM1, Multiple myeloma; 24 hours; 10% FBS; read-out: AMS 176 IC50
[5] = system: OPM2-Luc orthotopic tumors; assay: OPM2-Luc multiple myeloma orthotopic model, AMG 176 plus carfilzomib; format: in vivo; details: AMG 176 20 mg/kg orally once daily; carfilzomib 3 mg/kg IV twice weekly; day 4 until day 20; female NSG mice
Protocol: On day 0, female NSG mice were injected IV with 1×10^6 OPM2-Luc human OPM2-Luc multiple myeloma tumor cells transfected with the firefly luciferase gene.

KMS-28-BM = assay: Cell viability (CellTiterGlo), KMS-28-BM; format: cell-based; details: Multiple myeloma, 24 hours, 10% FBS, read-out: AMS 176 IC50
Pharmacokinetics in dogs = format: in vivo
Description: as §1

KMS-12-BM = assay: Cell viability (CellTiterGlo), KMS-12-BM; format: cell-based; details: Homo sapiens, Multiple myeloma, 24 hours, 10% FBS, read-out: AMS 176 IC50
[6] = system: OPM2 multiple myeloma tumor cell line; assay: Viability of OPM2 cells; format: cell-based; details: Homo sapiens
KMS-12-PE = assay: Cell viability (CellTiterGlo), KMS-12-PE; format: cell-based; details: Homo sapiens, Multiple myeloma, 24 hours, 10% FBS, read-out: AMS 176 IC50
[7] = Plasma concentration in OPM2-Luc tumor-bearing mice; format: in vivo; details: 60 mg/kg oral gavage; female athymic nude mice
Protocol: Activation of the pro-apoptotic pore-forming protein BAK and proteolytic cleavage of the cysteine-aspartic acid protease caspase 3 (hallmarks of the induction of apoptosis) in MCL1-dependent OPM2-Luc multiple myeloma tumor cells served as a PD assay. Female athymic nude mice were injected with 5×10^6 cells in 0.1 mL subcutaneously (SC). […] Mice were euthanized 2, 4, 8, 12, and 24 hours postdose (n=3/group), terminal plasma samples were collected for PK analysis, and tumors were halved and snap frozen in liquid nitrogen for PK and molecular analyses. Tumor lysates were prepared for evaluation of BAK activation and caspase 3 cleavage using an electrochemiluminescence immunoassay. Tumors treated with vehicle (25% HPβCD, pH 8) served as a negative control and indicated the baseline level of apoptosis.

dogs = assay: 28-day GLP IV toxicology study in dogs; format: in vivo; details: dog
Description: The doses selected for the 28-day IV rat and dog toxicology studies were intended to characterize the toxicity of the compound of Formula I and provide data to support a starting dose in the first-in-human (FIH) study. An IV route of administration and a dosing schedule of 2 days on/5 days off was used to support the anticipated clinical route and dosing schedule.

Sequence of Dog MCL1 (Q8HYS5 whole entry): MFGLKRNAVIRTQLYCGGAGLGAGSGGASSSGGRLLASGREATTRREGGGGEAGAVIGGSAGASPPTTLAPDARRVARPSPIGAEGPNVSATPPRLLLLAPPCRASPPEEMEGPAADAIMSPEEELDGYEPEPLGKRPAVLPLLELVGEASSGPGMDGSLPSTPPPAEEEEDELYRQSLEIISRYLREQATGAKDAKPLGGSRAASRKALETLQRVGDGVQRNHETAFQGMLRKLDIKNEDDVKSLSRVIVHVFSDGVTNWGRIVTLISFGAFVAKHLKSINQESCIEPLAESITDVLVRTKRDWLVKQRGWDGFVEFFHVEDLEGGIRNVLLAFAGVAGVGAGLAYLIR

For `CO[C@H]1/C=C/C[C@H](C)[C@@H](C)S(=O)(=O)NC(=O)c2ccc3c(c2)N(C[C@@H]2CC[C@H]21)C[C@@]1(CCCc2cc(Cl)ccc21)CO3` [AMG 176], the genotoxicity [1] was “not mutagenic or clastogenic”, the pIC50 (MM1R) was 5.94 and the half-life [2] was 1.66 h. The pIC50 (Karoas620) was 6.31, the tumor regression ([3]; 50 mg/kg intraperitoneally once per week) was 98% and the TGI ([3]; 50 mg/kg orally once per week) was 97%. For the same compound, the animals tumor free ([3]; 100 mg/kg once per week, day 26) was “Five out of 10”, the “tumor growth inhibition (TGI)” value ([3]; 100 mg/kg once-weekly oral, as stated in summary b107) was 70% and the tumor regression ([3]; 100 mg/kg orally once per week) was 70%. The “overt toxicity by changes in body weight” value ([3]; once-weekly dosing groups) was “No evidence of overt toxicity”, the pIC50 (Pfeiffer) was 4.72 and the phototoxicity [4] was “not phototoxic”. It also gave a pIC50 (Ramos) of 7.47, a pIC50 (Dog MCL1) of 9.55 and a pIC50 (Namalwa) of 6.63. The pIC50 (U937) was 6.32, the pIC50 (TF-1) was 5.68 and the pIC50 (KMS26) was 6.61. For the same compound, the pIC50 (KMM1) was 6.39, the “TGI (tumor burden)” value [5] was 86% and the pIC50 (KMS-28-BM) was 6.69. For the same compound, the “mean terminal elimination half-life (t1/2,z)” value (Pharmacokinetics in dogs) was 10.8 h, the pIC50 (KMS-12-BM) was 7.82 and the pIC50 ([6]; OPM-2, growth medium containing 5% human serum) was 6.15. The pIC50 ([6]; OPM-2, growth medium containing 10% fetal bovine serum) was 6.63, the pIC50 ([6]; OPM-2, serum-free growth medium) was 7.81 and the pIC50 (KMS-12-PE) was 6.88. The “time point of peak AMG 176 plasma concentration” value [7] was 4 h, the “finding related to morbidity and mortality” value (dogs) was “mucosal epithelial degeneration in the small and large intestines” and the dose with mortality (dogs; IV, 28-day) was 20 mg/kg. For the same compound, the “highest-nonseverely-toxic dose (HNSTD)” value (dogs; IV, 2 days on/5 days off, 28-day) was 10 mg/kg.
